Experimental data as given in US6528516B1, “Methods for reducing intraocular pressure using A3 adenosine receptor antagonists” (Trustees of the University of Pennsylvania, The Center for …, priority 1998, dated 2003).
pKi: −log10 of the molar value. “Also recorded” adds a separate entry of the source. One block for each compound: values may come before it.

What was measured:
[1] = tested on: bovine pigmented ciliary epithelial (PE) cells; assay: Cell volume (shrinkage) of PE cells in isoosmotic suspension, Coulter Counter; format: cell-based; details: for effect of estradiol on shrinkage produced by ATP and tamoxifen: 100 nM estradiol; for effect of estradiol on cell volume in the absence of tamoxifen: 100 nM, FIG. 16B; for effect of PKC modulator on cell volume in the presence of ATP: 0.3 μM staurosporine, 250 μM DiC8; for effect of agent on shrinkage in the presence of ATP / shrinkage by agent in the presence or absence of ATP: 10 μM agent; for shrinkage by agent in the presence or absence of ATP: with or without 100 μM ATP
[2] = tested on: HCE (human ciliary epithelial) cell line, NPE cells; assay: Cell volume (shrinkage) of NPE cells in isosmotic solution, Coulter Counter, 5 μM gramicidin; format: cell-based
Experimental: A 0.5-ml aliquot of the HCE cell suspension in DMEM was added to 20 ml of each test solution, which contained (in mM): 110.0 NaCl, 15.0HEPES [4-(2-hydroxyethyl)-1-piperazineethanesulfonic acid], 2.5 CaCl2, 1.2 MgCl2, 4.7 KCl, 1.2 KH2PO4, 30.0 NaHCO3, and 10.0 glucose, at a pH of 7.4 and osmolality of 298-305 mOsm. Parallel aliquots of cells were studied on the same day. One aliquot usually served as a control, and the others were exposed to different experimental conditions at the time of suspension. The same amount of solvent vehicle (dimethylformamide, DMSO or ethanol) was always added to the control and experimental aliquots. The sequence of studying the suspensions was varied to preclude systematic time-dependent artifacts (Civan et al., Exp. Eye Res. 54:181-191, 1992).
Cell volumes of isosmotic suspensions were measured with a Coulter Counter (model ZBI-Channelyzer II), using a 100-μm aperture (Civan et al., supra., 1994). As previously described (Wax et al., supra., 1993), the cell volume (vC) of the suspension was taken as the peak of the distribution function. Cell shrinkage was fit as a function of time (t) to a monoexponential function:
vC=v∞+(v0−v∞)−[e^−(t−t^0^)/τ] {1}
where v∞ is the steady-state cell volume, v0 is the cell volume at the first point (t0) of the time course to be fit, and τ is the time constant of the shrinkage. For purposes of data reduction, the data were normalized to the first time point, taken to be 100% isotonic volume. Fits were obtained by nonlinear least-squares regression analysis, permitting both v∞and τ to be variables.
In order to differentiate among these receptors, the experiments were repeated in the present study using a series of agonists and antagonists selective for these receptors. As we wished to identify the effects of these receptors specifically on Cl^− channels, 5 μM gramicidin D was included in all solutions to eliminate any potential contribution from K^+ channels. This ionophore readily partitions into plasma membranes to form a cation-selective pore, and is widely used for studying volume regulation (Hoffmann et al., in Interaction of Cell Volume and Cell Function, Lang et al., eds., Springer, Heidelberg, Germany, pp. 188-248, (ACEP Series 14), 1993)). Under these conditions, release of cell Cl^− becomes the rate-limiting factor in both hypo-(Civan et al., Exp. Eye Res. 54:181-191, 1992) and isoosmotic cell shrinkage (Carre et al., supra., 1997).

human A3 receptor = target: T1, human A3 receptor (Homo sapiens, UniProt P0DMS8); assay: Radioligand binding, [125I]AB-MECA, HEK-293 cell membranes; set-up: host or cells: HEK-293; details: read-out: Ki(hA3)
T1 sequence (P0DMS8 1-318): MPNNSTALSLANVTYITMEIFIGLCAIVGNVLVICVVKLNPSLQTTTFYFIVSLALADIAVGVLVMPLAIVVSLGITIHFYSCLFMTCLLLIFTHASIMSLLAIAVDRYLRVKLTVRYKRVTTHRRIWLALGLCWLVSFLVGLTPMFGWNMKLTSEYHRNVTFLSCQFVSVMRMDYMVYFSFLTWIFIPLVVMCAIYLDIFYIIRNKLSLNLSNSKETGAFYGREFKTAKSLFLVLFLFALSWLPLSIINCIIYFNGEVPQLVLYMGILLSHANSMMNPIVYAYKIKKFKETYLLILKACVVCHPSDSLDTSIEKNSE
Experimental: Natl. Acad. Sci. […] Natl. Acad. Sci. U.S.A. 89:7432-7436, 1992) was performed as described at 4° C. (Olah et al., Mol. Pharmacol. 45:978-982, 1994). The assay medium consisted of a buffer containing 10 mM Mg^2+, 50 mM Tris, 3 units/mL adenosine deaminase, and 1 mM EDTA, at pH 8.0 (4° C.). […] Incubations were terminated by rapid filtration over Whatman GF/B filters, using a Brandell cell harvester (Brandell, Gaithersburg, MD). The tubes were rinsed three times with 3 mL buffer each. At least five different concentrations of competitor, spanning 3 orders of magnitude adjusted appropriately for the IC50 of each compound, were used. IC50 values, calculated with the nonlinear regression method implemented in the InPlot program (Graph-PAD, San Diego, Calif.), were converted to apparent Ki values using the Cheng-Prusoff equation (Cheng et al., Biochem.

[3] = FIG. 2D, 100 nM Cl-IB-MECA, IB-MECA in parallel
[4] = 100 μM ATP + 10 μM agent, FIG. 13A
[5] = 10 μM trifluoperazine alone, FIG. 14B
[6] = 100 μM ATP + 10 μM TMX + 10 μM trifluoperazine, FIG. 14A
[7] = 100 μM ATP + 10 μM agent, FIG. 14A
[8] = 100 μM ATP + 10 μM trifluoperazine, FIG. 14B

SMILES: C[C@]12CC[C@@H]3c4ccc(O)cc4CC[C@H]3[C@@H]1CC[C@H]2O [17α-estradiol]
effect of estradiol on shrinkage produced by ATP and tamoxifen ([1]; 100 μM ATP, 10 μM tamoxifen): no significant effect
effect of estradiol on cell volume in the absence of tamoxifen [1]: very small effects

SMILES: C[C@]12CC[C@@H]3c4ccc(O)cc4CC[C@H]3[C@@H]1CC[C@@H]2O [17β-estradiol]
effect of estradiol together with ATP on cell volume ([1]; 100 nM 17β-estradiol, 100 μM ATP): small and slow shrinkage
effect of estradiol on shrinkage produced by ATP and tamoxifen ([1]; 100 μM ATP, 10 μM tamoxifen): reduced; also recorded: significantly inhibited
effect of estradiol on cell volume in the absence of tamoxifen [1]: very small effects

SMILES: CCNC(=O)[C@H]1O[C@@H](n2cnc3c(N)nc(NCCc4ccc(CCC(=O)O)cc4)nc32)[C@H](O)[C@@H]1O [CGS-21680, 2-[4-[(2-carboxyethyl)phenyl]ethylamino]-5′-N-ethylcarbamoyladenosine]
effect of adenosine-receptor agonist on isoosmotic volume ([2]; 100 nM agonist): no detectable effect
effect of adenosine-receptor agonist on isoosmotic volume ([2]; 3 μM agonist): triggered isoosmotic shrinkage

SMILES: OC[C@H]1O[C@@H](n2cnc3c(NC4CCCC4)ncnc32)[C@H](O)[C@@H]1O [CPA, N^6-cyclopentyladenosine]
effect of adenosine-receptor agonist on isoosmotic volume ([2]; 30 nM agonist): no significant shrinkage
effect of adenosine-receptor agonist on isoosmotic volume ([2]; 100 nM agonist): small slow effect of uncertain significance; also recorded: little effect
effect of adenosine-receptor agonist on isoosmotic volume ([2]; 1 μM agonist): no significant shrinkage
effect of adenosine-receptor agonist on isoosmotic volume ([2]; 3 μM agonist): no significant shrinkage; also recorded: none at all

SMILES: CNC(=O)[C@H]1O[C@@H](n2cnc3c(NCc4cccc(I)c4)nc(Cl)nc32)[C@H](O)[C@@H]1O [Cl-IB-MECA]
steady-state cell volume (V∞) [2, 3]: 97.9±0.2%
time constant of the shrinkage (τ) [2, 3]: 2.5 ± 1.3 min

SMILES: CCOC(=O)c1c(CC)c(C(=O)SCC)c(C)[n+](C)c1-c1ccccc1 [Compound 10, 1-Methyl-2-methyl-4-ethyl-3-(ethylsulfanylcarbonyl)-5-ethyloxycarbonyl-6-phenylpyridinium Iodide]
pKi (human A3 receptor): 6.42

pKi (human A3 receptor): 6.24
SMILES: CCOC(=O)c1c(CC)c(C(=O)SCC)c(CC)[n+](CC)c1-c1ccccc1 [Compound 12, 1-Ethyl-2,4-diethyl-3-(ethylsufanylcarbonyl)-5-ethyloxycarbonyl-6-phenylpyridinium Iodide]

SMILES: CCC[n+]1c(CC)c(C(=O)SCC)c(CC)c(C(=O)OCC)c1-c1ccccc1 [Compound 13, 1-Propyl-2,4-diethyl-3-(ethylsulfanylcarbonyl)-5-ethyloxycarbonyl-6-phenylpyridinium Iodide]
pKi (human A3 receptor): 5.87

pKi (human A3 receptor): 6.44
SMILES: CCSC(=O)c1c(CC)c(C(=O)OCCF)c(-c2ccccc2)[n+](C)c1CC [Compound 14]

SMILES: CCCOC(=O)c1c(CC)c(C(=O)SCC)c(CC)[n+](C)c1-c1ccccc1 [Compound 15, 1-Methyl-2-ethyl-4-ethyl-3-(ethylsulfanylcarbonyl)-5-propyloxycarbonyl-6-phenylpyridinium Iodide]
pKi (human A3 receptor): 6.32

SMILES: CCCOC(=O)c1c(CCC)c(C(=O)SCC)c(CC)[n+](C)c1-c1ccccc1 [Compound 16, 1-Methyl-2-ethyl-4-propyl-3-(ethylsulfanylcarbonyl)-5-propyloxycarbonyl-6-phenylpyridinium Iodide]
pKi (human A3 receptor): 5.69

SMILES: CCCOC(=O)c1c(CCC)c(C(=O)SCCCF)c(CC)[n+](C)c1-c1ccccc1 [Compound 17, 1-Methyl-2-ethyl-4-propyl-3-(3-fluoropropylsulfanylcarbonyl)-5-propyloxycarbonyl-6-phenylpyridinium Iodide]
pKi (human A3 receptor): 6.33

SMILES: CCCOC(=O)c1c(CCSC(C)=O)c(C(=O)SCC)c(CC)[n+](C)c1-c1ccccc1 [Compound 18, 1-Methyl-2-ethyl-4-(2-acetylthioethyl)-3-(ethylsulfanylcarbonyl)-5-propyloxycarbonyl-6-phenylpyridinium Iodide]
pKi (human A3 receptor): 6.27

pKi (human A3 receptor): 5.90
SMILES: CCOC(=O)c1c(CCN2C(=O)c3ccccc3C2=O)c(C(=O)SCC)c(CC)[n+](C)c1-c1ccccc1 [Compound 19]

SMILES: CCCCc1c(C(=O)SCC)c(CC)c(C(=O)OCC)c(-c2ccccc2)[n+]1C [Compound 20, 1-Methyl-2-butyl-4-ethyl-3-(ethylsulfanylcarbonyl)-5-ethyloxycarbonyl-6-phenylpyridinium Iodide]
pKi (human A3 receptor): 6.36

SMILES: CCOC(=O)c1c(CC)c(C(=O)SCC)c(C2CCC2)[n+](C)c1-c1ccccc1 [Compound 21, 1-Methyl-2-cyclobutyl-4-ethyl-3-(ethylsulfanylcarbonyl)-5-ethyloxycarbonyl-6-phenyl pyridinium Iodide]
pKi (human A3 receptor): 5.85

SMILES: CCCOC(=O)c1c(CCC)c(C(=O)SCC)c(CCOCc2ccccc2)[n+](C)c1-c1ccccc1 [Compound 22, 1-Methyl-2-(2-benzyloxylethyl)-4-propyl-3-(ethylsulfanylcarbonyl)-5-propyloxycarbonyl-6-phenylpyridinium Iodide]
pKi (human A3 receptor): 6.46

SMILES: O=S(=O)(O)c1cc(N=C=S)ccc1C=Cc1ccc(N=C=S)cc1S(=O)(=O)O [DIDS, 4,4′-diisothiocyano-2,2′-disulfonic acid]
effect of Cl− channel blocker on ATP, tamoxifen-activated shrinkage ([1]; DIDS 500 μM, NPPB 100 μM): inhibited the volume reduction; also recorded: reduced

SMILES: CCCCCCCC(=O)OCC(CO)OC(=O)CCCCCCC (stereo not shown) [DiC8]
effect of PKC modulator on cell volume in the presence of ATP ([1]; 100 μM ATP): no significant effect

SMILES: C[N+](C)(C)CCOC(N)=O [carbachol]
effect of agent on shrinkage in the presence of ATP ([1]; 100 μM ATP, FIG. 13A): did trigger a prompt shrinkage; also recorded: enhanced shrinkage
shrinkage by agent in the presence or absence of ATP [1]: nearly the same degree of shrinkage in the presence or absence of 100 μM ATP; also recorded: reduced cell volume on their own
steady-state cell volume (v∞) [1, 4]: 94.2±0.4%
time constant of the shrinkage (τ) [1, 4]: 5.6 ± 1.2 min

SMILES: NCCc1c[nH]cn1 [histamine]
effect of agent on shrinkage in the presence of ATP ([1]; 100 μM ATP, FIG. 13A): did not enhance the volumetric response
steady-state cell volume (v∞) [1, 4]: 97.4±0.5%
time constant of the shrinkage (τ) [1, 4]: 21.0 ± 8.0 min

SMILES: CN[C@@H]1C[C@H]2O[C@@](C)([C@@H]1OC)n1c3ccccc3c3c4c(c5c6ccccc6n2c5c31)C(=O)NC4 [staurosporine]
effect of PKC modulator on cell volume in the presence of ATP ([1]; 100 μM ATP): small, insignificant shrinkage

SMILES: CN1CCN(CCCN2c3ccccc3Sc3ccc(C(F)(F)F)cc32)CC1 [trifluoperazine]
shrinkage by agent in the presence or absence of ATP [1]: the same, whether or not ATP was present; also recorded: reduced cell volume on their own
steady-state cell volume (v∞) [1, 5]: 96.8±0.2%
time constant of the shrinkage (τ) [1, 5]: 0.9 ± 0.6 min
effect of trifluoperazine on shrinkage produced by ATP alone ([1]; 10 μM trifluoperazine, 100 μM ATP): enhanced the shrinkage produced by ATP alone
effect of trifluoperazine on the response to ATP+TMX ([1]; 10 μM trifluoperazine, 100 μM ATP, 10 μM tamoxifen): reduced the response
steady-state cell volume (v∞) [1, 6]: 95.7±0.4%
time constant of the shrinkage (τ) [1, 6]: 3.9 ± 1.2 min
steady-state cell volume (v∞) [1, 7]: 96.2±0.3%
time constant of the shrinkage (τ) [1, 7]: 6.8 ± 1.4 min
steady-state cell volume (v∞) [1, 8]: 96.7±0.3%
time constant of the shrinkage (τ) [1, 8]: 0.5 ± 1.5 min
